Patent US4661603A, “Imidazole derivatives” (Yoshitomi Pharmaceutical Industries, Ltd., priority 1982, dated 1987)
pIC50: −log10 of the molar value.

What was measured:
platelet aggregation = assay: Inhibitory activities on platelet aggregation (ex vivo, arachidonic acid, after oral administration to rabbits); format: in vivo, rabbit; conditions: Oryctolagus cuniculus, 1 h, blood one hour after administration, read-out: Inhibitory activities on platelet aggregation, Rate of inhibition
Description: According to the method described in Journal of Physiology, vol. 162, page 67 (1962), the inhibitory activities of compounds of this invention on platelet aggregation were measured from the changes in transmittance with an aggregometer (Rikadenki Electronics Co., Japan).
Before and one hour after the oral administration of test compounds to rabbits, blood was collected. The blood was mixed with sodium citrate in the ratio of 9:1 by volume. Platelet rich plasma (PRP) was prepared by centrifuging the citrated blood at 1000 rpm for 10 minutes, and platelet poor plasma (PPP), by centrifuging the remaining citrated blood at 3000 rpm for 10 minutes.
The transmittance of aggregometer was adjusted to 0 and 100% with PRP and PPP, respectively. To 0.3 ml of a PRP sample was added 0.003 ml of arachidonic acid solution. The changes in transmittance of the mixture were measured using the aggregometer with stirring at 1200 rpm.
Inhibitory activities on platelet aggregation were assessed as % inhibition by comparing the rate of aggregation of treated PRP with that of blood collected before the oral administration of test compounds.

[1] = Acute toxicity (oral LD50); conditions: rat, in vivo, p.o., six male Wistar rats
Description: According to the method described in Journal of Pharmacological and Experimental Therapeutics, vol. 96, page 99 (1949), the test compounds were orally administered to a group consisting of six male Wistar rats. The 50% lethal doses (LD50, mg/kg) were determined.

cyclo-oxygenase = molecular target: T1, cyclo-oxygenase (Bos taurus, UniProt O62664); assay: Inhibitory effect on cyclo-oxygenase; format: biochemical; conditions: in vitro; bovine seminal vesicle microsomes; 104.3 μM 14C-arachidonic acid, 25° C., 10 minutes; read-out: Inhibitory effect on cyclo-oxygenase (50% inhibitory molar concentration)
T1 construct: bovine seminal vesicle microsomes; from tissue; host or cells: bovine seminal vesicle microsomes
T1 sequence (O62664 25-600): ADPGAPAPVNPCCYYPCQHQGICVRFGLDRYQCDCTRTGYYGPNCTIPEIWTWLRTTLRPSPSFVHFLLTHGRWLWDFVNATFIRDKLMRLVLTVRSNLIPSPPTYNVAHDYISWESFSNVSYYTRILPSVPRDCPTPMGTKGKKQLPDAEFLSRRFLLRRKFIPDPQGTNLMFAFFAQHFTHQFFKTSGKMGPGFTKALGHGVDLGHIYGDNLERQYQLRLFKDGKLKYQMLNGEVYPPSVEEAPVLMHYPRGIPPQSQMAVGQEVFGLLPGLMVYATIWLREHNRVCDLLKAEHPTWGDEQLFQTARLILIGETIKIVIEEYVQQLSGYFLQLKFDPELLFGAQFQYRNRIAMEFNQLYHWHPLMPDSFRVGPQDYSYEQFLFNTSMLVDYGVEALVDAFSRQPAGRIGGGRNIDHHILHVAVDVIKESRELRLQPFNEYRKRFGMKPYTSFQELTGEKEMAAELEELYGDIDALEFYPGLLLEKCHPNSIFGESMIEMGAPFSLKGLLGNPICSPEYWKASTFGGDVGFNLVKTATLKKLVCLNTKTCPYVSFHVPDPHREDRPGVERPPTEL
Description: (§1) Effects of test compounds on thromboxane synthetase, cyclo-oxygenase and prostacyclin synthetase were examined in vitro by the following methods:
According to the method described in Proceedings of National Academy of Sciences, U.S.A., vol. 71, page 3645 (1974), bovine seminal vesicle microsomes were incubated with 104.3 μM ^14 C-arachidonic acid at 25° C. for 10 minutes. Prostaglandin E2 thus formed was separated and assayed using the same method as (a).
The inhibitory activities of test compounds on cyclo-oxygenase were assessed by comparing the contents of prostaglandin E2 formed in the presence and absence of test compounds.

prostacyclin synthetase = molecular target: T2, prostacyclin synthetase (Rattus norvegicus, UniProt Q62969); assay: Inhibitory effect on prostacyclin synthetase; format: biochemical; conditions: in vitro; rat aorta ring; 1.7 μM 14C-arachidonic acid, 37° C., 20 minutes; read-out: Inhibitory effect on prostacyclin synthetase (50% inhibitory molar concentration)
T2 construct: incubating the rat arota ring; from tissue; host or cells: rat aorta ring
T2 sequence (Q62969 1-501): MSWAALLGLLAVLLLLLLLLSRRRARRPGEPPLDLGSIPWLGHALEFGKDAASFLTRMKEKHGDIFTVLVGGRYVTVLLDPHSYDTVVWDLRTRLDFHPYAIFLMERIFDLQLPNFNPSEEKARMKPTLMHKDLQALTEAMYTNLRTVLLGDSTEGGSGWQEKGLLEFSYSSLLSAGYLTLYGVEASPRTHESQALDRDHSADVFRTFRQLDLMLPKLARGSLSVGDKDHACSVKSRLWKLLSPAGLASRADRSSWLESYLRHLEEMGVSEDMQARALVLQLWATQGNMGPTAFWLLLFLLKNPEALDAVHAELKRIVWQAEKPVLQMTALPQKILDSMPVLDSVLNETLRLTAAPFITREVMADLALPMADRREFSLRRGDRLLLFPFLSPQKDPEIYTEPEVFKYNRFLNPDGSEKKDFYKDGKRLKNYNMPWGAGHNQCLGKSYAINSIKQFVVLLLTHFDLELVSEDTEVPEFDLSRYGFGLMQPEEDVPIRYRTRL
Description: as §1
According to the method described in Journal of Pharmacology and Experimental Therapeutics, vol. 215, page 240 (1980), prostacyclin was formed by incubating the rat arota ring with 1.7 μM ^14 C-arachidonic acid at 37° C. for 20 minutes. Since prostacyclin is extremely short-lived, 6-keto-prostaglandin F1α, which is a stable degradation product of prostacyclin, was separated and assayed using the same method as (a).
The inhibitory activities of test compounds on prostacyclin synthetase were assessed by comparing the contents of 6-keto-prostaglandin F1α formed in the presence and the absence of test compounds.

thromboxane synthetase = molecular target: T3, thromboxane synthetase (Homo sapiens, UniProt P24557); assay: Inhibitory effect on thromboxane synthetase; format: biochemical; conditions: in vitro; human platelet microsomes; 4.3 μM 14C-arachidonic acid, 25° C., 5 minutes; read-out: Inhibitory effect on thromboxane synthetase (50% inhibitory molar concentration)
T3 construct: incubating human platelet microsomes; from tissue; host or cells: human platelet microsomes
T3 sequence (P24557 1-533): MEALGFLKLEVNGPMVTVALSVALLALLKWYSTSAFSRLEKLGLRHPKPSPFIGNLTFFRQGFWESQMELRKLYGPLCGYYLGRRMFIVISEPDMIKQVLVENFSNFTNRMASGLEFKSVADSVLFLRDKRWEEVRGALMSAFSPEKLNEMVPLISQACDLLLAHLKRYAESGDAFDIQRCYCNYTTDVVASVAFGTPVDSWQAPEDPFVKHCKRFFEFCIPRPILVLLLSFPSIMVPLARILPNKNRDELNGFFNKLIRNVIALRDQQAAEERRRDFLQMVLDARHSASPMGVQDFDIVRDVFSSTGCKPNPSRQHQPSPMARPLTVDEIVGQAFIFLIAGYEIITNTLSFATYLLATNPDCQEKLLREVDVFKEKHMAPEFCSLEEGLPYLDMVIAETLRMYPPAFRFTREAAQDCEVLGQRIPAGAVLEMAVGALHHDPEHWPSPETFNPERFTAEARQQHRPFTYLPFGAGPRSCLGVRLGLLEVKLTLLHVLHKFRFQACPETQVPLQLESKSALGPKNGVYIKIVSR
Description: as §1
According to the method described in Journal of Biological Chemistry, vol. 252, page 5871 (1977), thromboxane was produced by incubating human platelet microsomes with 4.3 μM ^14 C-arachidonic acid at 25° C. for 5 minutes. Since thromboxane A2 is extremely short-lived, thromboxane B2, which is a stable degradation product of thromboxane A2, was assayed. The incubation mixture was extracted with ethyl acetate, and thromboxane B2 was separated on a thin-layer chromatogram. The zone of thromboxane B2 on a silica gel plate was detected with a radiochromatoscanner and scraped off. The radioactivities were determined with a liquid scintilation counter.
The inhibitory activities of test compounds on thromboxane synthetase were assessed by comparing the contents of thromboxane formed in the presence and the absence of test compounds.

Q: Which inhibition at 10 mg/kg (platelet aggregation) does the source give for `Cc1cc(C)c(C(O)c2cccc(-n3ccnc3)c2C)c(C)c1` (stereo not drawn) [α-(2,4,6-Trimethylphenyl)-2-methyl-3-(1-imidazolyl)benzenemethanol] here?
A: 68%

Q: What about the LD50 [1] of the same molecule?
A: > 1000 mg/kg

Q: Which inhibition at 10 mg/kg (platelet aggregation) does the source give for `Cc1cc(C)c(C(O)c2ccc(C)c(-n3ccnc3)c2)c(C)c1` (stereo not drawn) [α-(2,4,6-Trimethylphenyl)-4-methyl-3-(1-imidazolyl)benzenemethanol] here?
A: 88%

Q: And the LD50 [1]?
A: > 1000 mg/kg

Q: With `Cc1cc(C)c(C(O)c2cc(-n3ccnc3)ccc2Cl)c(C)c1` (stereo not drawn) [α-(2,4,6-trimethylphenyl)-2-chloro-5-(1-imidazolyl) benzenemethanol] as the molecule, how does the pIC50 (cyclo-oxygenase) read?
A: < 3.00

Q: And the inhibition at 10 mg/kg (platelet aggregation)?
A: 71%

Q: What about the LD50 [1] of the same molecule?
A: > 1000 mg/kg

Q: What about the pIC50 (prostacyclin synthetase) of the same molecule?
A: < 3.00

Q: What about the pIC50 (thromboxane synthetase) of the same molecule?
A: 5.64

Q: For `Cc1cc(C)c(C(O)c2cc(-n3ccnc3)ccc2C)c(C)c1` (stereo not drawn) [α-(2,4,6-trimethylphenyl)-2-methyl-5-(1-imidazolyl)benzenemethanol], which inhibition at 10 mg/kg (platelet aggregation) is on record?
A: 100%

Q: And the LD50 [1]?
A: > 1000 mg/kg

Q: And the pIC50 (thromboxane synthetase)?
A: 6.09

Q: With `Cc1cc(C)c(C(O)c2cccc(-n3ccnc3)c2)c(C)c1` (stereo not drawn) [α-(2,4,6-trimethylphenyl)-3-(1-imidazolyl)benzenemethanol] as the molecule, how does the pIC50 (cyclo-oxygenase) read?
A: < 3.00

Q: And the inhibition at 10 mg/kg (platelet aggregation)?
A: 100%

Q: What about the LD50 [1] of the same molecule?
A: > 1000 mg/kg

Q: And the pIC50 (prostacyclin synthetase)?
A: < 4.00

Q: And the pIC50 (thromboxane synthetase)?
A: 6.47

Q: With `Cc1cc(C)c(C(O)c2ccc(-n3ccnc3)c(Cl)c2)c(C)c1` (stereo not drawn) [α-(2,4,6-trimethylphenyl)-3-chloro-4-(1-imidazolyl)benzenemethanol] as the molecule, how does the pIC50 (cyclo-oxygenase) read?
A: < 4.00

Q: What about the inhibition at 10 mg/kg (platelet aggregation) of the same molecule?
A: 80%

Q: What about the LD50 [1] of the same molecule?
A: > 1000 mg/kg

Q: And the pIC50 (prostacyclin synthetase)?
A: < 4.00

Q: And the pIC50 (thromboxane synthetase)?
A: 6.74

Q: What does the source list for `Cc1cc(C(=O)O)cc(C)c1C(O)c1cc(-n2ccnc2)ccc1Cl` (stereo not drawn) [α-(2,6-dimethyl-4-carboxyphenyl)-2-chloro-5-(1-imidazolyl)benzenemethanol]?
A: pIC50 (cyclo-oxygenase): < 4.00; inhibition at 10 mg/kg (platelet aggregation): 100%; LD50 [1]: > 1000 mg/kg; pIC50 (prostacyclin synthetase): < 4.00; pIC50 (thromboxane synthetase): 7.28

Q: With `Cc1ccc(-n2ccnc2)cc1C(O)c1c(C)cc(C(=O)O)cc1C` (stereo not drawn) [α-(2,6-dimethyl-4-carboxyphenyl)-2-methyl-5-(1-imidazolyl)benzenemethanol] as the molecule, how does the pIC50 (cyclo-oxygenase) read?
A: < 4.00

Q: And the inhibition at 10 mg/kg (platelet aggregation)?
A: 100%

Q: And the LD50 [1]?
A: > 1000 mg/kg

Q: What about the pIC50 (prostacyclin synthetase) of the same molecule?
A: < 4.00

Q: And the pIC50 (thromboxane synthetase)?
A: 7.66

Q: With `CCOC(=O)c1cc(C)c(C(O)c2cc(-n3ccnc3)ccc2C)c(C)c1` (stereo not drawn) [α-(2,6-dimethyl-4-ethoxycarbonylphenyl)-2-methyl-5-(1-imidazolyl)benzenemethanol] as the molecule, how does the pIC50 (cyclo-oxygenase) read?
A: < 4.00

Q: What about the inhibition at 10 mg/kg (platelet aggregation) of the same molecule?
A: 100%

Q: What about the LD50 [1] of the same molecule?
A: > 1000 mg/kg

Q: And the pIC50 (prostacyclin synthetase)?
A: < 4.00

Q: With `Cc1ccc(-n2ccnc2)cc1C(O)c1c(C)cc(C(=O)OC(C)C)cc1C` (stereo not drawn) [α-(2,6-dimethyl-4-isopropoxycarbonylphenyl)-2-methyl-5-(1-imidazolyl)benzenemethanol] as the molecule, how does the pIC50 (cyclo-oxygenase) read?
A: < 4.00

Q: And the inhibition at 10 mg/kg (platelet aggregation)?
A: 76%

Q: What about the LD50 [1] of the same molecule?
A: > 1000 mg/kg

Q: What about the pIC50 (prostacyclin synthetase) of the same molecule?
A: < 4.00

Q: With `COC(=O)c1cc(C)c(C(O)c2cc(-n3ccnc3)ccc2C)c(C)c1` (stereo not drawn) [α-(2,6-dimethyl-4-methoxycarbonylphenyl)-2-methyl-5-(1-imidazolyl)benzenemethanol] as the molecule, how does the pIC50 (cyclo-oxygenase) read?
A: < 4.00

Q: What about the inhibition at 10 mg/kg (platelet aggregation) of the same molecule?
A: 100%

Q: And the LD50 [1]?
A: > 1000 mg/kg

Q: And the pIC50 (prostacyclin synthetase)?
A: < 4.00

Q: What about the pIC50 (thromboxane synthetase) of the same molecule?
A: 6.15
